“Also recorded” adds a separate entry of the source.
Columns and labels:
[1] = system: RPE-“choroid” tissues; experiment: Hypoxia disease model: DMOG treatment of bioprinted RPE-"choroid" tissue, confocal imaging; type: cell-based, human; details: two weeks of treatment
Method: FIGS. 18A-18I are digital images showing the effect of hypoxia on “choriocapillaris.” RPE-“choroid” tissues were treated with DMOG (100 μM) after 4 weeks from printing. DMOG inhibits prolyl-4-hydroxylase and induces hypoxia-inducible factor. DMOG was treated on only apical region of RPE or on both apical region of RPE and “choroid” sides. After two weeks of DMOG treatment, tissues were fixed in 4% PFA. Z-stack confocal images were separated into three sections as RPE (A-C), subRPE/scaffold (D-F), and “choroid” (G-I). RPE was recognized by Hoescht (nuclei). Choroid was stained with CD31. Scale bar=100 μm.
It was tested if hypoxic condition of RPE or RPE-“choroid” plays a role in “choroidal” neovascularization. Hypoxia has been reported as a crucial factor to induce wet AMD. A chemical compound, DMOG, was used to induce hypoxia-inducible factor in RPE or every cell type within the tissue.

[2] = system: 3D vascularized tissue containing GFP positive primary endothelial cells, pericytes, and fibroblasts; details: a week of VEGF treatment (85 ng/ml) vs 3 days then basal 1.7 ng/ml
Text: (A) 8 bit images of printed GFP endothelial cells (white) were quantified. Five line probes were placed in each gap between stripes of the printed geometry. Each line probe detects peaks (hollow circles) of GFP intensity above a threshold. Line 1 and 6, 2 and 5, 3 and 4 indicate edge, intermediate, and center of each gap, respectively. (B) Two experimental groups are compared. […] Angiogenesis was quantified as a number of GFP peaks in each line probe. The quantification of angiogenesis was performed between groups and time frames of G (n=5; number of printings). Error bars indicates standard error and mean. Two-way ANOVA and Bonferroni post-hoc pair comparison. † indicates statistical significance (p<0.05) between groups (left figure) and day 5-6 and day 7-8 (right figure). # and * indicates statistical significance (p<0.05) in day 3-4 vs. day 5-6 and day 3-4 vs. day 7-8, respectively.

Compound	vascularization in sub-RPE region (CD31 stain) ([1]; DMOG 100 μM from 4 weeks after printing, on apical region of RPE only or on both RPE and “choroid” sides)	changes of the RPE monolayer ([1]; DMOG 100 μM, RPE recognized by Hoescht)	growth and viability of microvascular network [2]
COC(=O)CNC(=O)C(=O)OC [DMOG]	significantly induced vascularization in sub-RPE region; also recorded: induced vascularization in the subRPE region	did not show noticeable changes	–
VEGF	–	–	significantly enhanced growth and viability of microvascular network
